# Data reported in US20220241227A1, “COMPOSITIONS COMPRISING HDAC INHIBITORS AND RETINOIDS” (The Regents of The University of California, priority 2019, published 2022).
# Where two headings read alike, the source gives them in different places.
# How the values were obtained:
# miR-22 [1] = assay: miR-22 induction in HCT116 cells; format: cell-based; conditions: RA 10 μM, SAHA 5 μM, butyrate 5 mM, propionate 10 mM, valerate 10 mM
# From the text: Mean±SD, *p<0.05; **p<0.01; ***p<0.0001 vs. DMSO control, #p<0.05 vs. single agent treatment.
# Swiss mice = conditions: oral; cited from earlier work
# miR-22 [2] = conditions: published data, cells not given; cited from earlier work
# RARβ = RARβ mRNA and protein levels in HCT116 cells; format: cell-based; conditions: 48 hrs, RA 10 μM, butyrate 5 mM, SAHA 5 μM
# HDAC1, HDAC4, and SIRT1 = conditions: liver cancer Huh7 and colon cancer HCT116 cells, published data; cited from earlier work
# [3] = tested on: colon tumors in xenograft models; conditions: combination: RA 0.025 mg/g and butyrate 1.2 mg/g, intraperitoneal, 5 times/week, 2 weeks; cited from earlier work
Molecule,miR-22 induction (miR-22 [1]),miR-22 induction (miR-22 [2]),other results
"CC1=C(/C=C/C(C)=C/C=C/C(C)=C/C(=O)O)C(C)(C)CCC1 [RA, all-trans retinoic acid]",induced,,LD50 (Swiss mice): 1.1 mg/g
"O=C(CCCCCCC(=O)Nc1ccccc1)NO [SAHA, suberanilohydroxamic acid]",induced,induces miR-22,
CC(=O)O [acetate],unable to induce miR-22,,
O=CO [formate],unable to induce miR-22,,
CCC(=O)O [propionate],induced,induce miR-22,
CCCCC(=O)O [valerate],induced,induce miR-22,
"EGF: promotes growth and does not has HDAC inhibitory effect (NSDSECPLSHDGYCLHDGVCMYIEALDKYACNCVVGYIGERCQYRDLKWWELR; Epidermal growth factor; UniProt P01133 971-1023, looked up)",,,RARβ expression (mRNA and protein) (RARβ): did not induce RARβ
"miR-22: tumor suppressor microRNA, SEQ ID NO:1 (AAGCUGCCAGUUGAAGAACUGU; listed as RNA, chemistry not fully specified; listed as Homo sapiens)",,,"HDAC1, HDAC4, and SIRT1 levels (HDAC1, HDAC4, and SIRT1): reduced; treatment of colon tumors in xenograft models [3]: effective in treating colon tumors"
